Experimental data taken from the NIST ThermoML archive (doi:10.1021/je900598y).

Columns and labels:
[1] = 298.15 K; 101.33 kPa; Liquid
[2] = excess molar enthalpy (molar enthalpy of mixing); xn = mol fraction of the nth substance listed; details: 298.15 K, Liquid, Calvet calorimetry

CCCCCC(=O)OC(=O)CCCCC [caproic anhydride]
Details | mass density [kg/m3]
[1] | 923.96

CCCCC(=O)OC(=O)CCCC [pentanoic anhydride] + CCCCCCCCCCCC
[2]
Details | excess molar enthalpy [kcal/mol]
x1 = 0.0248 | 0.0469
x1 = 0.0484 | 0.0865
x1 = 0.0709 | 0.118
x1 = 0.0923 | 0.146
x1 = 0.1128 | 0.169
x1 = 0.1324 | 0.189
x1 = 0.1511 | 0.207
x1 = 0.1691 | 0.222
x1 = 0.1914 | 0.239
x1 = 0.2126 | 0.253
x1 = 0.2327 | 0.265
x1 = 0.2518 | 0.276
x1 = 0.2699 | 0.285
x1 = 0.2827 | 0.292
x1 = 0.3038 | 0.299
x1 = 0.3195 | 0.305
x1 = 0.3411 | 0.315
x1 = 0.3488 | 0.317
x1 = 0.3569 | 0.319
x1 = 0.3654 | 0.321
x1 = 0.3743 | 0.323
x1 = 0.3837 | 0.325
x1 = 0.3935 | 0.327
x1 = 0.4025 | 0.328
x1 = 0.4118 | 0.329
x1 = 0.4217 | 0.33
x1 = 0.432 | 0.331
x1 = 0.4428 | 0.332
x1 = 0.4542 | 0.333
x1 = 0.4644 | 0.333
x1 = 0.475 | 0.333
x1 = 0.4861 | 0.332
x1 = 0.4978 | 0.332
x1 = 0.51 | 0.331
x1 = 0.5229 | 0.329
x1 = 0.5342 | 0.327
x1 = 0.5461 | 0.326
x1 = 0.5585 | 0.323
x1 = 0.5715 | 0.32
x1 = 0.5851 | 0.317
x1 = 0.5993 | 0.313
x1 = 0.6122 | 0.309
x1 = 0.6257 | 0.305
x1 = 0.6398 | 0.3
x1 = 0.6545 | 0.294
x1 = 0.6699 | 0.287
x1 = 0.6861 | 0.28
x1 = 0.7003 | 0.272
x1 = 0.7151 | 0.265
x1 = 0.7305 | 0.256
x1 = 0.7467 | 0.246
x1 = 0.7635 | 0.235
x1 = 0.7811 | 0.223
x1 = 0.7967 | 0.211
x1 = 0.8129 | 0.199
x1 = 0.8298 | 0.185
x1 = 0.8474 | 0.17
x1 = 0.8657 | 0.153
x1 = 0.8849 | 0.135
x1 = 0.9022 | 0.117
x1 = 0.9202 | 0.0976
x1 = 0.9389 | 0.0768
x1 = 0.9584 | 0.0528
x1 = 0.9788 | 0.028

CCCCC(=O)OC(=O)CCCC [pentanoic anhydride]
Details | mass density [kg/m3]
[1] | 939.15
